In brackets after ≈: the same amount, converted by molar mass. Activity calls are given as the source filed them. The rule behind the calls is not given here.
Columns and labels:
[1] = Aqueous solubility of the compound in aqueous buffer at 100 uM incubated for 24 hrs under agitation condition by UV-Vis spectrophotometric analysis; format: physicochemical
[2] = test system: Mycobacterium tuberculosis; test: Antimycobacterial activity against Mycobacterium tuberculosis H37Rv ATCC 27294 assessed as inhibition of bacterial growth incubated for 7 days by broth dilution method; format: functional; details: H37Rv ATCC 27294, 168 h, time 7 day
[3] = Effective permeability coefficient of the compound at 500 uM incubated for 18 hrs under agitation condition by PAMPA assay; format: ADME; details: for Papp at 18 h, 500 µM: PAMPA, read-out: Peff
[4] = test system: Mycolicibacterium smegmatis; test: Disruption of proton motive force in Mycobacterium smegmatis spheroplasts assessed as disruption of proton gradient by measuring acidification of intracellular spaces within spheroplasts at 2XMIC90 measured after 30 mins by BCECF-AM dye based fluorescence analysis; format: functional, organism-based
[5] = Ratio of MIC90 for antimycobacterial activity against Mycobacterium bovis BCG B16-1 harboring mmpL3 C1932G/F644L mutant to MIC90 for antimycobacterial activity against wild type Mycobacterium bovis BCG ATCC 35734; format: functional
[6] = test system: Mycobacterium tuberculosis; test: Myco-bactericidal activity against Mycobacterium tuberculosis H37Rv ATCC 27294 assessed as inhibition of bacterial colony formation incubated for 7 days by agar plate method; format: functional; details: H37Rv ATCC 27294, 168 h, time 7 day, read-out: MBC99.9
[7] = Ratio of MIC90 for antimycobacterial activity against Mycobacterium bovis BCG B47-3 harboring mmpL3 T1930C/F644L mutant to MIC90 for antimycobacterial activity against wild type Mycobacterium bovis BCG ATCC 35734; format: functional
[8] = Selectivity index, ratio of IC50 for cytotoxicity against African green monkey Vero E6 cells to MIC50 for antimycobacterial activity against Mycobacterium tuberculosis H37Rv ATCC 27294; format: toxicity, cell-based, Vero C1008; details: read-out: Selectivity Index
[9] = Half life in rat liver microsomes at 200 uM incubated for 5 mins followed by NADPH addition and measured for 45 mins by LC-MS/MS analysis; format: ADME, Microsome; details: time 50 min
[10] = Ratio of MIC90 for antimycobacterial activity against Mycobacterium bovis BCG B47-2 harboring mmpL3 G2041A/V681I mutant to MIC90 for antimycobacterial activity against wild type Mycobacterium bovis BCG ATCC 35734; format: functional
[11] = Ratio of MIC90 for antimycobacterial activity against Mycobacterium bovis BCG B33-1 harboring mmpL3 C1932G/F644L mutant to MIC90 for antimycobacterial activity against wild type Mycobacterium bovis BCG ATCC 35734; format: functional
[12] = Cytotoxicity against African green monkey Vero E6 cells assessed as reduction in cell viability incubated for 48 hrs by MTS assay; format: toxicity, cell-based, Chlorocebus sabaeus, Vero C1008
[13] = Selectivity index, ratio of IC50 for cytotoxicity against African green monkey Vero E6 cells to MIC50 for antimycobacterial activity against Mycobacterium bovis BCG ATCC 35734; format: toxicity, cell-based, Vero C1008; details: read-out: Selectivity Index
[14] = Ratio of MIC90 for antimycobacterial activity against Mycobacterium bovis BCG B47-1 harboring mmpL3 C1932G/F644L mutant to MIC90 for antimycobacterial activity against wild type Mycobacterium bovis BCG ATCC 35734; format: functional
[15] = Ratio of MIC90 for antimycobacterial activity against Mycobacterium bovis BCG B16-2 harboring mmpL3 C1932A/F644L mutant to MIC90 for antimycobacterial activity against wild type Mycobacterium bovis BCG ATCC 35734; format: functional
[16] = Ratio of MIC90 for antimycobacterial activity against Mycobacterium bovis BCG B47-4 harboring mmpL3 C1932G/F644L mutant to MIC90 for antimycobacterial activity against wild type Mycobacterium bovis BCG ATCC 35734; format: functional
[17] = Ratio of MIC90 for antimycobacterial activity against Mycobacterium bovis BCG B33-2 harboring mmpL3 C765G/F255L mutant to MIC90 for antimycobacterial activity against wild type Mycobacterium bovis BCG ATCC 35734; format: functional
[18] = test system: Mycolicibacterium smegmatis; test: Disruption of proton motive force in Mycobacterium smegmatis spheroplasts assessed as disruption of proton gradient by measuring acidification of intracellular spaces within spheroplasts at 2 to 5 uM measured after 30 mins by BCECF-AM dye based fluorescence analysis; format: functional, organism-based; details: dose 2-5 µM

For `Cc1cc(C)c2cc(C(=O)NC3CCCCCCC3)[nH]c2c1`, the solubility at 24 h, 100 µM [1] was 5.7 µM (≈ 1.7 µg/mL), the MIC90 [2] was 0.013 µM (≈ 0.00388 µg/mL) and the Peff ([3]; pampa, 18 h, 500 µM) was 14 10^-6 cm/s.

In the case of `CC(C)NCC(O)COc1cccc2ccccc12` (stereo not given) [PROPRANOLOL], the Papp at 18 h, 500 µM [3] is reported as 11.9 ×10⁻⁶ cm/s.

In the case of `c1ccc2[se]c(CNC3CCCCCCC3)cc2c1`, the solubility at 24 h, 100 µM [1] is reported as 77.8 µM (≈ 24.9 µg/mL) and the Activity [4] is reported as “inactive”.

Work on `O=C(NC1CCC2(CCCCC2)CC1)c1cc2c(F)cc(F)cc2[nH]1` yielded an MIC90 [2] of 0.003 µM (≈ 0.00104 µg/mL).

Work on `FC(F)(F)c1ccc2cc(CNC3CCCCCCC3)[nH]c2c1` yielded a Ratio [5] of 5, an MBC [6] of 0.63 µM (≈ 0.204 µg/mL) and a solubility at 24 h, 100 µM [1] of 31 µM (≈ 10.1 µg/mL). It also gave a Ratio [7] of 5, a selectivity ratio [8] of 366 and a half-life at 200 µM [9] of 8.2 min. For the same compound, the Ratio [10] was 5, the Activity [4] was “inactive” and the MIC50 [2] was 0.05 µM (≈ 0.0162 µg/mL). It also gave an MIC90 [2] of 0.13 µM (≈ 0.0422 µg/mL), a Ratio [11] of 5 and an IC50 at 48 h [12] of 22 µM. The selectivity ratio [13] was 550, the Ratio [14] was 5 and the Papp at 18 h, 500 µM [3] was 13.4 ×10⁻⁶ cm/s. The Ratio [15] was 5, the Ratio [16] was 5 and the Ratio [17] was 5.

Compound `O=C(NC1CCCCCCC1)c1cc2ccccc2[nH]1` has a solubility at 24 h, 100 µM [1] of 2.4 µM (≈ 0.649 µg/mL).

For `c1ccc2[nH]c(CNC3CCCCCCC3)cc2c1`, the solubility at 24 h, 100 µM [1] was 99.7 µM (≈ 25.6 µg/mL).

Work on `CC1(C)CCC(NC(=O)c2cc3c(Cl)cc(Cl)cc3[nH]2)CC1` yielded an MIC50 [2] of 0.015 µM (≈ 0.00509 µg/mL).

`O=C(NC1CCCCCCC1)c1cc2ccc(C(F)(F)F)cc2[nH]1` gave a Ratio [5] of 5, an MBC [6] of 0.08 µM (≈ 0.0271 µg/mL) and a solubility at 24 h, 100 µM [1] of 2.2 µM (≈ 0.744 µg/mL). The Ratio [7] was 5, the selectivity ratio [8] was greater than 5000 and the half-life at 200 µM [9] was 25.6 min. The Ratio [10] was 5, the Activity [4] was “inactive” and the MIC50 [2] was 0.02 µM (≈ 0.00677 µg/mL). For the same compound, the MIC90 [2] was 0.04 µM (≈ 0.0135 µg/mL), the Ratio [11] was 5 and the IC50 at 48 h [12] was greater than 100 µM. It also gave a selectivity ratio [13] greater than 5000, a Ratio [14] of 5 and a Papp at 18 h, 500 µM [3] of 0.34 ×10⁻⁶ cm/s. The Ratio [15] was 5, the Ratio [16] was 5 and the Ratio [17] was 5.

Work on `CC1(C)CCC(NC(=O)c2cc3c(F)cc(F)cc3[nH]2)CC1` yielded an MIC50 [2] of 0.023 µM (≈ 0.00705 µg/mL).

`O=C(NC1CCCCCCC1)c1cc2ccc(Br)cc2[nH]1` showed a solubility at 24 h, 100 µM [1] of 1.6 µM (≈ 0.559 µg/mL) and a Papp at 18 h, 500 µM [3] of 8.1 ×10⁻⁶ cm/s.

For `O=C(NC1C2CC3CC(C2)CC1C3)c1cc2cc(Cl)ccc2[nH]1` (stereo not given), the MIC90 [2] was 0.47 µM (≈ 0.155 µg/mL).

With `Cc1cc(C)c2cc(CNC3CCCCCCC3)[nH]c2c1` the solubility at 24 h, 100 µM [1] was 70.1 µM (≈ 19.9 µg/mL), the MIC90 [2] was 0.31 µM (≈ 0.0882 µg/mL) and the Papp at 18 h, 500 µM [3] was 18.4 ×10⁻⁶ cm/s.

For `O=C(NC1CCCCCCC1)c1cc2ccccc2s1`, the solubility at 24 h, 100 µM [1] was 3.3 µM (≈ 0.949 µg/mL) and the Activity [4] was “inactive”.

`Brc1ccc2cc(CNC3CCCCCCC3)[nH]c2c1` showed a solubility at 24 h, 100 µM [1] of 35.4 µM (≈ 11.9 µg/mL) and a Papp at 18 h, 500 µM [3] of 13.4 ×10⁻⁶ cm/s.

In the case of `N#CC(C#N)=NNc1cccc(Cl)c1`, the Activity [18] is reported as “Active”.

`NNC(=O)c1ccncc1` [ISONIAZID] gave an MBC [6] of 3.2 µM (≈ 0.439 µg/mL), an MIC50 [2] of 1.8 µM (≈ 0.247 µg/mL) and an MIC90 [2] of 3.8 µM (≈ 0.521 µg/mL).

With `Cc1c(CN2CCN(C)CC2)cc(-c2ccc(Cl)cc2)n1-c1ccc(Cl)cc1` the Activity [4] was “inactive”.

For `O=C(NC1CCCCCCC1)c1cc2ccccc2[se]1`, the solubility at 24 h, 100 µM [1] was 3.7 µM (≈ 1.24 µg/mL) and the Activity [4] was “inactive”.

With `C[C@@H]1[C@H]2C[C@@H](C[C@H]1NC(=O)c1cc3c(F)cc(F)cc3[nH]1)C2(C)C` the MIC90 [2] was 0.012 µM (≈ 0.00399 µg/mL).

For `c1ccc2sc(CNC3CCCCCCC3)cc2c1`, the Ratio [5] was 5, the solubility at 24 h, 100 µM [1] was 73.5 µM (≈ 20.1 µg/mL) and the Ratio [7] was 5. For the same compound, the Ratio [10] was 5, the Activity [4] was “inactive” and the Ratio [11] was 5. For the same compound, the Ratio [14] was 5, the Ratio [15] was 5 and the Ratio [16] was 5. The Ratio [17] was 5.

From ChEMBL document CHEMBL5226308, “Amide-Amine Replacement in Indole-2-carboxamides Yields Potent Mycobactericidal Agents with Improved Water Solubility” (ACS Med Chem Lett, 2021)
